{"source": "patent US6767738B1", "about": "“Method of isolating adult mammalian CNS-derived progenitor stem cells using density gradient centrifugation” (The Salk Institute for Biological Studies, priority 1999, dated 2004)", "test_system": "c-fos mRNA (Trk receptor tyrosine kinase signaling)", "test": "RT-PCR analysis of neurotrophin-dependent c-fos induction", "assay_type": "cell-based, rat", "details": "pretreatment with RA for 6 days", "protocol": "Cell Culture. For proliferating conditions, clonal stem cells (AP14) were cultured in Dulbecco's Modified Eagles Medium/Ham's F12 (DMEM/F12, 1:1) containing N2 supplement (Gibco BRL, Gaithersburg, Md.) and 20 ng/ml rhFGF-2 (provided by A. Baird, Prizm Pharmaceuticals Inc., La Jolla, Calif.). Culture dishes (Becton Dickinsin Labware, Lincoln Park, N.J.) were coated with polyomithine and mouse laminin as previously described by Ray, et al., Proliferation, differentiation and long-term culture of primary hippocampal neurons, Proc Natl Acad Sci USA 90:3602-3606 (1993). For differentiation experiments, cells were plated into polyornithine/laminin coated glass chamber slides (Nunc, Naperville, Ill.) at a density of 2.5—103 per cm2. The cells were incubated for 24 hrs in normal N2 medium containing 20 ng/ml FGF-2, and then the medium was replaced by N2 medium containing 0.5% […] (FBS) and 0.01% DMSO (control solvent) or […] all-trans retinoic acid (Sigma, St. Louis, Mo.). For further differentiation, the medium was replaced by N2 medium containing 0.5% FBS and one of the following: sterile water (control solvent), mouse 2.55 NGF (50 ng/ml, Boehringer Mannheim, Indianapolis, Ind.), rhBDNF (20 ng/ml, Alomone Labs, Jerusalem, Israel), rhNT-3 (40 ng/ml, Genentech, South San Francisco, Calif.). The medium was replaced every two days. For inhibition of the tyrosine kinase activity of the Trk receptors, K-252a (100 nM, Calbiochem, San Diego, Calif.) was added to the medium.\nReverse Transcription-PCR Analysis. Total RNA from stem cells was isolated using RNeasy Total RNA Kits (Qiagen, Chatsworth, Calif.) according to manufacturer's instructions. Fifty nanograms of total RNA was reverse transcribed using avian myeloblastosis virus reverse transcriptase (Promega, Madison, Wis.) with random hexamers ([…]) as primers in a […] reaction mixture. For PCR amplification, two sets of specific oligonucleotide pairs ([…]) were used: one directed to the transcript of interest, and one for a constitutively expressed transcript, either ribosomal protein L27 or L27a. Reactions were performed in a […] reaction mixture containing 10 mM Tris-Cl (pH 8.4), 50 mm KCl, 1.5 mM MgC12, […] each of the four dNTPs, 2 mCi of [a-32P]dCTP and 5 units of Taq polymerase (Promega) using a thermal cycler (Perkin-Elmer, Foster City, Calif.) with a regimen of 1 min at 94° C., 2 min at 60° C. (55° C. for trk receptors) and 2 min at 72° C. for 23 cycles Fifty microliters of each reaction was analyzed by electrophoresis on 8% polyacrylamide gels followed by autoradiography. […] Under these conditions, the L27 amplification product was directly proportional to the amount of input RNA, up to 50 ng total RNA. Oligonucleotide primers used are as follows: […]\nRA treatment also results in neurotrophin-dependent induction of c-fos. Transient and rapid induction of immediate early genes such as c-fos is a well-characterized response to extracellular stimuli in neural cells. c-fos is induced after neurotrophin treatment in cultured […] hippocampal or cortical cells and the signaling cascade following c-fos induction is considered to be integral to subsequent steps in differentiation. To determine whether upregulation of mRNAs for trk receptors and p75NGFR observed in the stem cell cultures results in the acquisition of functional Trk-dependent stimulation of c-fos, mRNA was examined by RT-PCR analysis after stimulating RA-treated cells with neurotrophins. […]", "data": [{"molecule": "CC1=C(/C=C/C(C)=C/C=C/C(C)=C/C(=O)O)C(C)(C)CCC1", "note": "[RA, all-trans retinoic acid]", "values": [{"measurement": "baseline expression of c-fos mRNA", "value": "increased"}]}]}
